Assay results published in patent publication US10413518B2, “CYP450 lipid metabolites reduce inflammation and angiogenesis” (Massachusetts Eye and Ear Infirmary, priority 2013, dated 2019).

Columns and labels:
[1] = system: peripheral blood leukocytes (PBLs) on P-selectin and ICAM-1; experiment: Autoperfused microflow chamber assay, chamber coated with P-selectin and ICAM-1; assay type: in vivo; settings: metabolite administered to mice with laser-induced CNV; for Leucocyte rolling: FIGS. 9A-D
Protocol: Autoperfused microflow chamber assay. Leukocyte rolling velocity was analyzed using the autoperfused microflow chamber assay.^33,43 In brief, translucent microchambers (0.4×0.04×50 mm; VitroCom) were coated overnight at 4° C. with either recombinant murine P-selectin, or combination P-selectin and ICAM1 (R&D Systems) at a concentration of 5 μg/ml each. The microchambers were then connected at both ends to biocompatible polyester tubing (PE10, Becton Dickinson). Thereafter, both the tubing and microchamber were incubated with 0.1% bovine serum albumin (Sigma-Aldrich) for 1 h to block nonspecific leukocyte interaction with their inner surfaces. The free ends of the tubing were then connected microsurgically to the right carotid artery and left jugular vein of an anesthetized mouse. In this system, blood flows from the carotid artery into the biocompatible inlet tubing, passes through the microchamber, and reenters the animal's body via the outlet tubing and jugular vein. The rate of blood flow is regulated by adjustment of the diameter of the inlet tubing with a screw valve. Microtransducers (Harvard Apparatus) attached to the chamber by three-way connectors embedded before and after the microchamber allow the continuous measurement of blood pressure. The analog output of the microtransducers unit was digitalized with an A/D converter (ML785 PowerLab/8SP, ADInstruments) connected to a PC computer running CHART V7 software (ADInstruments). The measured values at the inlet and outlet of the microchamber were used to calculate the pressure drop (ΔP). […] Ten different fields of view were recorded for at least 30 seconds. Leukocyte rolling velocity was determined from the displacement of individual cells interacting with the chamber surface over time (Δd/Δt). The displacement of leukocytes was determined using image J software 1.46 (NIH). Flux was defined as the number of interacting leukocytes per field of view, averaged over 10 independent field of views. To account for the hemodynamic conditions within the chamber, the blood pressure before the inlet and after the outlet of the chamber was measured, from which the drop of pressure Δp and the shear stress were derived

[2] = system: laser-induced CNV; experiment: Laser-induced CNV, cross-sectional lesion area by SD-OCT; assay type: in vivo, mice; settings: 7 days after CNV induction; for Protection from laser-induced CNV (SD-OCT): intraperitoneal daily, 5 or 50 μg/kg/day, vs vehicle
Protocol: (§1) Laser-induced model of CNV. Laser photocoagulation was performed 2 weeks after the onset of feeding with the ω-3 or ω-6 LCPUFA diets with the use of a 532-nm laser (Oculight GLx Laser System, IRIDEX) attached to a slitlamp, with a coverslip being used to applanate the cornea in order to afford a view of the posterior pole of the eye. Four lesions located at the 3, 6, 9, and 12 o'clock meridians centered on the optic nerve (size and leakage studies) or 10 lesions (protein and mRNA analysis) were induced in both eyes with the same settings: spot size of 100 μm, pulse duration of 0.1 s, and laser power of 100 mW.^25 The lesions were located two or three disc diameters from the optic nerve. Laser-induced disruption of Bruch's membrane was identified by the appearance of a bubble at the site of photocoagulation. […] One investigator executed all laser photocoagulation.
Spectral domain optical coherence tomography (SD-OCT). SD-OCT was performed with a Bioptigen system at 5 and 7 days after laser photocoagulation. Mice were anesthetized with Avertin (Sigma) and positioned on a custom cassette that allowed three-dimensional free rotation for alignment of the eye for imaging. Hydration with normal saline was used to preserve corneal clarity. The B-scan were performed with 100 horizontal, raster, and consecutive B-scan lines, each one composed of 1000 A-scans. The area size was 1.4 by 1.4 mm. The software was able to generate an en face fundus image with the reflectance information obtained from the OCT sections (volume intensity projection), so that a point-to-point correlation between OCT and fundus position was possible and accurate. For evaluation of the cross-sectional size of each lesion in OCT images, the sections passing through the center of the CNV were chosen. […] We narrowed and positioned it to the level of the retinal pigment epithelium—choroid complex, so that the area of the retinal pigment epithelium—Bruch's membrane rupture was readily identifiable in the fundus image as a hyporeflective spot.^25

[3] = system: laser-induced CNV; experiment: Laser-induced CNV, vascular leakage by fluorescein angiography; assay type: in vivo, mice; settings: 7 days after CNV induction; for Vascular leakage after CNV induction: intraperitoneal daily, 5 or 50 μg/kg/day, vs vehicle
Protocol: as §1
Fluorescein angiography. Fluorescein angiography was performed with a camera and imaging system (TRC 50 VT camera and IMAGEnet 1.53 system,
Topcon) at 5 and 7 days after laser photocoagulation. Photographs were captured with a 20-diopter lens in contact with the fundus camera lens after intraperitoneal injection of 0.1 ml of 2% fluorescein sodium (Akorn). […] Lesions were graded according to a previously established scheme as follows: 0 (not leaky), faint hyperfluorescence or mottled fluorescence without leakage; 1 (questionable leakage), hyperfluorescent lesion without progressive increase in size or intensity; 2A (leaky), hyperfluorescence increasing in intensity but not in size; 2B (clinically significant leakage), hyperfluorescence increasing in intensity and in size.^42

[4] = system: CD18; experiment: Flow cytometric analysis of CD18 on PBLs; assay type: in vivo, mice; settings: metabolite administered, laser-induced CNV model
Protocol: (§2) Isolation of PBLs for flow cytometric analysis. Blood freshly collected from the mouse heart with an EDTA-treated syringe was incubated for 30 min on ice with phycoerythrin-conjugated rat monoclonal antibodies to CD11b (M1/70, BD Biosciences) or to CD18 (C71/16, BD Biosciences), or with isotype control antibodies, at a ratio of 1 μg per 1×10^6 total cells. Red blood cells were lysed with the use of Easy-Lyse (Leinco Technologies), and the remaining cells were isolated by centrifugation and resuspended in PBS on ice for immediate flow cytometric analysis. PBLs were gated according to their characteristic forward and side scatter with the use of a Cytomics FC500 instrument (Beckman Coulter), and data were analyzed with FlowJo 10.0 software […].

[5] = system: laser-induced CNV; experiment: Laser-induced CNV, lesion size in choroidal flat-mounts stained with isolectin B4; assay type: in vivo, mice; settings: 7 days after CNV induction; for Protection from laser-induced CNV (choroidal flatmount): intraperitoneal daily, 5 or 50 μg/kg/day, vs vehicle
Protocol: as §1
Choroid flat-mount preparation. For evaluation of the size of CNV lesions, mice were anesthetized with Avertin (Sigma) and sacrificed by cervical dislocation at 5 or 7 days after laser photocoagulation. The eyes were removed and fixed in 4% paraformaldehyde for 60 min at room temperature, the cornea and lens were removed, and the entire retina was carefully dissected from the eyecup. Radial cuts (average, eight) were made from the edge of the eyecup to the equator, and the preparation was then washed with ice-cold PBS containing 0.3% Tween 20.^41 For visualization of vessels, the eyecup was stained overnight at room temperature with Alexa Fluor 488—conjugated Griffonia (Bandeiraea) simplicifolia isolectin B4 (Invitrogen) at a dilution of 1:100. The eyecup was flat-mounted on Superfrost/Plus microscope slides (Fisher) in SlowFade Antifade reagent (Invitrogen) with the sclera facing down and the choroid facing up. Fluorescence images of choroidal flat-mounts were captured with a Zeiss AxioCam MRm camera and Zeiss AxioObserver.Z1 microscope. The CNV area was measured with the use of Image J software.

[6] = system: CD11b; experiment: Flow cytometric analysis of CD11b on PBLs; assay type: in vivo, mice; settings: metabolite administered, laser-induced CNV model
Protocol: as §2

[7] = system: PPARγ; experiment: PPARγ activity in retinal nuclear extracts (ELISA-based TransAM kit); assay type: in vivo; settings: ω-3-fed mice, IP daily 1 mg/kg, 7 days after CNV induction
Protocol: Measurement of PPARγ activity. The retinas (n=8) of mice were pooled to reduce biological variability and were homogenized in an ice-cold hypotonic buffer (ActiveMotif) for preparation of a nuclear fraction. The nuclear extract (20 μg of protein) was assayed for PPARγ activity with the use of an ELISA-based TransAM kit (ActiveMotif).

[8] = ω-3 LCPUFA diet, IP daily 1 mg/kg

| Structure (SMILES) | Leucocyte rolling [1] | Protection from laser-induced CNV (SD-OCT) [2] | Vascular leakage after CNV induction [3] | Systemic leukocyte recruitment during CNV [1] | Protection from laser-induced CNV (choroidal flatmount) [5] | also measured |
| --- | --- | --- | --- | --- | --- | --- |
| CCCCC/C=C\C/C=C\CC1OC1C/C=C\CCCC(=O)O (stereo not shown) [8,9-EET, reference compound] | increased leucocyte rolling |  |  |  |  |  |
| CCCCC/C=C\C[C@H]1O[C@H]1C/C=C\C/C=C\CCCC(=O)O [11,12-EET, reference compound] | increased leucocyte rolling |  |  |  |  |  |
| CCCCCC1OC1C/C=C\C/C=C\C/C=C\CCCC(=O)O (stereo not shown) [14,15-EET, reference compound] | increased leucocyte rolling |  |  |  |  |  |
| CCC1OC1C/C=C\C/C=C\C/C=C\C/C=C\CCCC(=O)O (stereo not shown) [17,18-EEQ, 17,18-epoxyeicosatetraenoic acid] | decreased rolling | significant and dose-dependent protection | significantly decreased | reduces | significant and dose-dependent protection | CD18 in peripheral blood leukocytes [4]: suppresses |
| CCC1OC1CC=CCC=CCC=CCC=CCC=CCCC(=O)O (stereo not shown) [19,20-EDP, 19,20-epoxydocosapentaenoic acid] | decreased rolling | significant protection | significant protection | reduces | significant protection | CD11b in peripheral blood leukocytes [6]: suppresses |
| O=C(Nc1ccccc1)c1cc([N+](=O)[O-])ccc1Cl [GW9662, reference compound] |  |  |  |  |  | Activity of PPARγ in the retina [7]: significantly reduces; Effect on the protective effects of ω3-LCPUFAs on CNV size (SD-OCT) [2, 8]: significantly reduces; Effect on the protective effects of ω3-LCPUFAs on leakage [3, 8]: significantly reduces; Effect on the protective effects of ω3-LCPUFAs on CNV size (choroidal flat-mount) [5, 8]: significantly reduces |
